Test results taken from patent US20050107353A1, “Methods of treating lower urinary tract disorders using losigamone” (Dynogen Pharmaceuticals, Inc., priority 2003, published 2005).
Entries after “also recorded” stand apart in the source; their conditions may differ. Structures can show the parent of a compound that is named as a salt.

Experiments:
[1] = test system: acetic acid-induced reduction of bladder capacity; assay: Dilute acetic acid model: bladder capacity by filling cystometry during continuous intravesical acetic acid irritation; type: in vivo, rat; conditions: for post-test: reversal of bladder capacity reduction: rats; for effect on bladder capacity (reversal of acetic acid-induced reduction): increasing doses, rats during continuous irritation
Text: The objective of the current study was to determine the effect of TTX-R sodium channel modulators or use dependent sodium channel modulators on the ability to reverse the reduction in bladder capacity seen following continuous infusion of dilute acetic acid, a commonly used model of lower urinary tract disorders including overactive bladder.
Animal Preparation: Female rats (250-275 g BW) were anesthetized with urethane (1.2 g/kg) and a saline-filled catheter (PE-50) was inserted into either the jugular vein for intravenous (i.v.; saline vehicle) or the proximal duodenum for intraduodenal (i.d.; distilled water or 10% Tween 80 in saline as vehicle) drug administration. Via a midline lower abdominal incision, a flared-tipped PE 50 catheter was inserted into the bladder dome for bladder filling and pressure recording and secured by ligation. The abdominal cavity was moistened with saline and closed by covering with a thin plastic sheet in order to maintain access to the bladder for emptying purposes. Fine silver or stainless steel wire electrodes were inserted into the external urethral sphincter (EUS) percutaneously for electromyography (EMG).
Experimental Design: Saline was continuously infused at a rate of 0.055 ml/min via the bladder filling catheter for ≧60 minutes to obtain a baseline of lower urinary tract activity (continuous cystometry; CMG). Following the control period, a 0.25% acetic acid solution in saline was infused into the bladder at the same flow rate to induce bladder irritation. Following 30 minutes of AA infusion, 3 vehicle injections were made at 20 minute intervals to determine vehicle effects, if any. Subsequently, increasing doses (2-5) of Na^+ channel blocking compound were administered intravenously or intraduodenaly at half-log order increments at 30 or 60 minute intervals in order to construct a cumulative dose-response relationship. At the end of the control saline cystometry period, the third vehicle, and 20-50 minutes following each subsequent treatment, the infusion pump was stopped, the bladder was emptied by fluid withdrawal via the infusion catheter and a single filling cystometrogram was performed at the same flow rate in order to determine changes in bladder capacity caused by the irritation protocol and subsequent intravenous or intraduodenal drug administration.
Data were analyzed by non-parametric ANOVA for repeated measures (Friedman Test) with Dunn's Multiple Comparison test. All comparisons were made from the last vehicle measurement (AA/Veh 3) or the lowest dose of drug. P<0.050 was considered significant.

[2] = biological target: T1, TTX-R sodium currents in bladder afferent neurons (Rattus norvegicus, UniProt Q62968); assay: Bladder sensory neuron sodium channel current model: whole cell patch-clamp of TTX-R sodium currents; type: cell-based; conditions: for concentration-response effect on TTX-R sodium current amplitude: bath application, cumulative concentrations, bladder afferent neurons; for effect on inward TTX-R sodium current: 100 μM bath application, labeled bladder afferent neuron
T1 construct: Whole cell patch-clamp recordings were obtained from dye-labeled DRG neurons; endogenous in cells; host or cells: primary dissociated L6/S1 dorsal root ganglion neurons of Sprague-Dawley rats, dye-labelled bladder afferents
Description: Labeling of bladder afferent neurons: Adult female Sprague-Dawley rats (150-300 g) were deeply anesthetized with pentobarbital anesthesia and placed on isoflurane maintenance anesthesia. A ventral midline incision was made through the abdominal skin and musculature, exposing the urinary bladder. Five injections of the fluorescent dye Di-I (5 μl each of 25 mg/ml Di-I in DMSO) or Fast Blue (4% w/v) were made into the bladder smooth muscle wall to label primary afferent fibers innervating the bladder. The area was rinsed with sterile saline to eliminate nonspecific spread of dye, and the incision was closed. Rats recovered for 5-12 days to allow for transport of fluorescent dye from distal terminals to the cell somata of dorsal root ganglion (DRG) neurons. Labeled neurons were identified in vitro using fluorescence optics.
Neuronal cultures: Di-I injected rats were euthanized with pentobarbital anesthesia. Lumbar (L6) and sacral (S1) DRG were dissected from the vertebral column and placed in Dulbecco's modified Eagles medium (DMEM) containing 0.3% collagenase B for 60 min at 37° C. The cell solution was exchanged for a 0.25% trypsin in calcium/magnesium-free Dulbecco's phosphate-buffered saline solution, and further digested for 30 min at 37° C. Following a wash in fresh DMEM, ganglia were dissociated by a series of triturations using fire-polished Pasteur pipettes. DRG cells were plated on polylysine-treated glass coverslips. Cells were plated at a density of 0.5 DRG per coverslip in 1 ml DMEM supplemented with 10% FBS, NGF, and 100 U/ml penicillin/streptomycin. All experimental procedures involving rats were conducted under a protocol approved by an Institutional Animal Care and Use Committee. Small variations in the concentrations of reagents, incubation times, etc. may occur and are expected to give similar results.
In most experiments, neurons were incubated in culture medium containing the FITC-labeled lectin BSI-B4 (IB4, […]) at 37° C. for 5 min before recording. The coverslip was washed with extracellular recording solution for 1 min before being placed in a recording chamber mounted on the stage of an inverted microscope equipped with fluorescence optics.
Electrophysiology: Electrophysiologic evaluation of neurons occurred within 4-48 h of plating. Whole cell patch-clamp recordings were obtained from dye-labeled DRG neurons. Recordings were obtained in an extracellular recording solution (pH 7.4, 295-320 mosM) consisting of (in mM) 140 NaCl, 3 KCl, 1 CaCl2, 1 MgCl2, 0.1 CdCl2, 10 HEPES, and 10 glucose. Patch-clamp electrodes were pulled from borosilicate glass and fire polished to 2-6 MOhm tip resistance. The internal pipette recording solution (pH 7.3, 290-300 mosM) consisted of (in mM) 140 CsCl, 10 NaCl, 1 EGTA, and 10 HEPES. Tetrodotoxin (TTX, 0.3 uM) was included in the extracellular solution to block TTX-sensitive sodium currents. Variations in the concentrations and types of reagents used for solutions may occur and are expected to give similar results.
Sodium currents were recorded from DRG neurons using standard electrophysiologic protocols. Neurons were typically voltage-clamped at −50 mV. Currents were recorded using a patch-clamp amplifier and digitized at 3-10 kHz for acquisition. Neuronal input resistance and membrane capacitance were determined from the amplitude and kinetics of the current response to a voltage pulse from a holding potential of −50 mV. Series resistance was compensated 75-95% for all recordings. Leak currents were cancelled online using a standard P/4 protocol. Depolarizing steps from −90, −70, or −50 mV to 0 mV were delivered every 5 or 30 sec during drug application to determine the effects of drugs on sodium currents. For all cell types, baseline responses were recorded for a minimum of 10 min to ensure that the kinetics of the response was stable. A wash out or recovery period usually followed the drug application period. […]

T1 sequence (Q62968 whole entry): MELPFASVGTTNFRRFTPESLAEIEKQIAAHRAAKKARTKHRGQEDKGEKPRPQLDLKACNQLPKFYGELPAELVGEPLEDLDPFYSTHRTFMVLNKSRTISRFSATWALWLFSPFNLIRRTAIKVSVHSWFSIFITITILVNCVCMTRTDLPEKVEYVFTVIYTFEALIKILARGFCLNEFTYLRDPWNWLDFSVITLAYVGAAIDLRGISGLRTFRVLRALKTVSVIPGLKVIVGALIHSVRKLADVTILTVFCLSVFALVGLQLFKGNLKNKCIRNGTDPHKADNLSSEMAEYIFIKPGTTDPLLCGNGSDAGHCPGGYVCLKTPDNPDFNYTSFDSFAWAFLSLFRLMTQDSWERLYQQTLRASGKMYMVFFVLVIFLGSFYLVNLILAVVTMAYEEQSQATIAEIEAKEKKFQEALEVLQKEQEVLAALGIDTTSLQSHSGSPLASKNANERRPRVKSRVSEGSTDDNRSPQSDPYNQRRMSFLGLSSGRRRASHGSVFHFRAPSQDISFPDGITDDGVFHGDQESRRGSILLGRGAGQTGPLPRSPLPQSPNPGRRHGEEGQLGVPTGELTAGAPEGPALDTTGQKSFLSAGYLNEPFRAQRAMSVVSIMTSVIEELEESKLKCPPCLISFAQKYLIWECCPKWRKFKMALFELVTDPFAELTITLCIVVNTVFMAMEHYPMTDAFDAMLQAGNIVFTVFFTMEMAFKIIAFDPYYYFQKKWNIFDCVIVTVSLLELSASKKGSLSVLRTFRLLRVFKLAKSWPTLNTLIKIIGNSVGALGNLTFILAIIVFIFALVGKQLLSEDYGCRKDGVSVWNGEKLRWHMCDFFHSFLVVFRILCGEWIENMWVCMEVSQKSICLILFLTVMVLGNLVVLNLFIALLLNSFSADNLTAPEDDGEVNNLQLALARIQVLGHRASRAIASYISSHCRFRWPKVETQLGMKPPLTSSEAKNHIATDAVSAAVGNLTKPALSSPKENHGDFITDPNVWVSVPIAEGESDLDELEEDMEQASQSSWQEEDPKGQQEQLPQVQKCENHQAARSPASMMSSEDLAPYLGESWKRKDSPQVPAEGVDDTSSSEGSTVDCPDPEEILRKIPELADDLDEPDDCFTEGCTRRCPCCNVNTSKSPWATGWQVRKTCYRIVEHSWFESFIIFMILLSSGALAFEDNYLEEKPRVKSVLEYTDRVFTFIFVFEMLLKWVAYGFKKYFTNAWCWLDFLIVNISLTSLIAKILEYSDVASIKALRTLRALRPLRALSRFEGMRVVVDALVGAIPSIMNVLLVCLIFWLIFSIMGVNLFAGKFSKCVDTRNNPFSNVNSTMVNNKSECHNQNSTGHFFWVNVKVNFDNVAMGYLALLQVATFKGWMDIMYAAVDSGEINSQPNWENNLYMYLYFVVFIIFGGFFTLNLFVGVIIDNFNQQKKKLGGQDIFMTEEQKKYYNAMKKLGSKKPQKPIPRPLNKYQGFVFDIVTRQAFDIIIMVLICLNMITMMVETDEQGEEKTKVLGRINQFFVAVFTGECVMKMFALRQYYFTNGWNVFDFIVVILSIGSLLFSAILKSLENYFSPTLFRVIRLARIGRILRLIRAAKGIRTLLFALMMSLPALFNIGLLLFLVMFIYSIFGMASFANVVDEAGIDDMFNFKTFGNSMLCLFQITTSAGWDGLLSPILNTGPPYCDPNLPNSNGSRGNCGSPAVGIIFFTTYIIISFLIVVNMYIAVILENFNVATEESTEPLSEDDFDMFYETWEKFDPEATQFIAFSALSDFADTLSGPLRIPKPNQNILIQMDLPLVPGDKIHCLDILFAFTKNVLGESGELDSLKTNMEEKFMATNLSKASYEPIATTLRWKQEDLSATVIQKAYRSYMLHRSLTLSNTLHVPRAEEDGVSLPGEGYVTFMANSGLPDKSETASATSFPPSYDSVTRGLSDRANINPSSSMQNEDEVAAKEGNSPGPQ

COC1=CC(=O)O[C@@H]1[C@@H](O)c1ccccc1Cl (relative stereo) [Losigamone, (5R*)-5-[(alphaS*)-o-Chloro-alpha-hydroxybenzyl]-4-methoxy-2(5H)-furanone]
post-test: reversal of bladder capacity reduction ([1]; 300 mg/kg dose, intraduodenal): statistically significant reversal of bladder capacity reduction
effect on bladder capacity (reversal of acetic acid-induced reduction) ([1]; intraduodenal): capable of partially reversing the reduction in bladder capacity caused by acetic acid in a dose-dependent fashion; also recorded: dose-dependent and statistically significant reversal
effect on bladder capacity (reversal of acetic acid-induced reduction) ([1]; intraduodenal, listed as losigamone): dose-dependent, statistically significant increases in bladder capacity

Nc1c(Br)cc(Br)cc1CNC1CCC(O)CC1 (centres unmarked) [Ambroxol]
concentration-response effect on TTX-R sodium current amplitude [2]: concentration-dependent reversible block; also recorded: reversible, concentration-dependent reduction in current amplitude
IC50 ([2]; three bladder afferent neurons, 2-3 minute application, TTX 300 nM present, read-out: estimated IC50 for block of TTX-R sodium currents): ~15 µM
post-test: reversal of bladder capacity reduction ([1]; 300 mg/kg dose, intraduodenal): statistically significant reversal of bladder capacity reduction
effect on bladder capacity (reversal of acetic acid-induced reduction) ([1]; intraduodenal): capable of partially reversing the reduction in bladder capacity caused by acetic acid in a dose-dependent fashion; also recorded: dose-dependent and statistically significant reversal
effect on bladder capacity (reversal of acetic acid-induced reduction) ([1]; intraduodenal, listed as ambroxol): dose-dependent, statistically significant increases in bladder capacity

NC(=O)N1c2ccccc2C=Cc2ccccc21 [Carbamazepine]
post-test: reversal of bladder capacity reduction ([1]; 100 mg/kg dose, intraduodenal): statistically significant reversal of bladder capacity reduction
effect on bladder capacity (reversal of acetic acid-induced reduction) ([1]; intraduodenal): capable of partially reversing the reduction in bladder capacity caused by acetic acid in a dose-dependent fashion; also recorded: dose-dependent and statistically significant reversal
effect on bladder capacity (reversal of acetic acid-induced reduction) ([1]; intraduodenal, listed as carbamazepine): dose-dependent, statistically significant increases in bladder capacity

Cc1cccc(C)c1OCC(C)N (centres unmarked) [Mexiletine, 1-(2,6-Dimethylphenoxy)-2-propanamine hydrochloride]
post-test: reversal of bladder capacity reduction ([1]; 30 mg/kg dose, intraduodenal): statistically significant reversal of bladder capacity reduction
effect on bladder capacity (reversal of acetic acid-induced reduction) ([1]; intraduodenal, hydrochloride): capable of partially reversing the reduction in bladder capacity caused by acetic acid in a dose-dependent fashion; also recorded: dose-dependent and statistically significant reversal
effect on bladder capacity (reversal of acetic acid-induced reduction) ([1]; intraduodenal, listed as mexilitine, hydrochloride): dose-dependent, statistically significant increases in bladder capacity

C[C@H](NCc1ccc(OCc2ccccc2F)cc1)C(N)=O [Ralfinamide, (+)-2(S)-[4-(2-Fluorobenzyloxy)benzylamino]propionamide]
effect on inward TTX-R sodium current [2]: blocked the current
peak TTX-R sodium current ([2]; 100 μM, three neurons, holding potential −50 mV, pulse to 0 mV): 36±6 % of control
post-test: reversal of bladder capacity reduction ([1]; 30 mg/kg dose, intraduodenal): statistically significant reversal of bladder capacity reduction
effect on bladder capacity (reversal of acetic acid-induced reduction) ([1]; intraduodenal): capable of partially reversing the reduction in bladder capacity caused by acetic acid in a dose-dependent fashion; also recorded: dose-dependent and statistically significant reversal
effect on bladder capacity (reversal of acetic acid-induced reduction) ([1]; intraduodenal, listed as ralfinamide): dose-dependent, statistically significant increases in bladder capacity

CN1CCN(c2ncc(-c3cc(Cl)cc(Cl)c3Cl)c(N)n2)CC1 [Sipatrigine, 4-Amino-2-(4-methylpiperazin-1-yl)-5-(2,3,5-trichlorophenyl)pyrimidine]
effect on inward TTX-R sodium current [2]: blocked the current
concentration-response effect on TTX-R sodium current amplitude [2]: concentration-dependent reduction in current amplitude
post-test: reversal of bladder capacity reduction ([1]; 30 mg/kg dose, intraduodenal): statistically significant reversal of bladder capacity reduction
post-test: reversal of bladder capacity reduction ([1]; 100 mg/kg dose, intraduodenal): statistically significant reversal of bladder capacity reduction
effect on bladder capacity (reversal of acetic acid-induced reduction) ([1]; intraduodenal): capable of partially reversing the reduction in bladder capacity caused by acetic acid in a dose-dependent fashion; also recorded: dose-dependent and statistically significant reversal
effect on bladder capacity (reversal of acetic acid-induced reduction) ([1]; intraduodenal, listed as sipatrigine): dose-dependent, statistically significant increases in bladder capacity

Cc1ccc(C(=O)C(C)CN2CCCCC2)cc1 (centres unmarked) [Tolperisone]
effect on bladder capacity (reversal of acetic acid-induced reduction) ([1]; intravenous): Neither Vinpocetine (FIG. 9) nor intravenous Tolperisone (FIG. 10) demonstrated statistically significant effects on bladder capacity; also recorded: not capable of significantly reversing the reduction in bladder capacity caused by acetic acid
effect on bladder capacity (reversal of acetic acid-induced reduction) ([1]; intravenous, listed as tolperisone): neither intraduodenal vinpocetine (n=6; 3-100 mg/kg) nor intravenous tolperisone (n=4; 3-10 mg/kg) demonstrated statistically significant effects on bladder capacity

CCOC(=O)C1=C[C@]2(CC)CCCN3CCc4c(n1c1ccccc41)[C@@H]32 [Vinpocetine]
effect on bladder capacity (reversal of acetic acid-induced reduction) ([1]; intraduodenal): not capable of significantly reversing the reduction in bladder capacity caused by acetic acid; also recorded: Neither Vinpocetine (FIG. 9) nor intravenous Tolperisone (FIG. 10) demonstrated statistically significant effects on bladder capacity
effect on bladder capacity (reversal of acetic acid-induced reduction) ([1]; intraduodenal, listed as vinpocetine): neither intraduodenal vinpocetine (n=6; 3-100 mg/kg) nor intravenous tolperisone (n=4; 3-10 mg/kg) demonstrated statistically significant effects on bladder capacity
